In assay [1] the target is wild type MLL1 five-member complex (MLL1-5C) (Homo sapiens, UniProt Q03164). Put plainly: MLL1 Flashplate Assay. The assay is classed as biochemical. The conditions noted are these: read-out: MLL1 flash plate.
Assay [2] concerns H3K4me3 in MV4-11 cells. Briefly: MV4-11 H3K4me3 Cellular ELISA Assay. The conditions noted are these: Homo sapiens, MV4-11, 48 h. The assay is classed as cell-based. The method in brief: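 MV4-11 cells were treated for 48 h with 12-point 1:3 compound dilutions (from 10 mM stock), then histones were acid-extracted with 0.5M HCl and neutralized. H3K4me3 and total H3 were measured by HRP chemiluminescent ELISA, and inhibition versus DMSO after H3 normalization was curve-fitted for IC50.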
For orientation: ELISA stands for enzyme-linked immunosorbent assay.

In assay [3] the test system is MV4-11 cells. Put plainly: MV4-11 6-Day Cell Growth CTG (CellTiter-Glo) Assay. In kind it is cell-based. The conditions noted are these: Homo sapiens, MV4-11, 144 h, MV4-11 cell growth CellTiter-Glo, 6 days. The method in brief:
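MV4-11 AML cells (RPMI 1640, 10% FBS) seeded at 300 cells/well and exposed for 6 days at 37 °C to a 12-point, 1:3 compound series starting at 50 μM final. Viable cells read by CellTiter-Glo luminescence; percent inhibition versus DMSO-only wells fitted to dose-response curves for IC50.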
For orientation: ATP-based viability assays read luminescence as a measure of living cells.

The target in assay [4] is wild type MLL1 four-member complex (MLL1-4C) (Homo sapiens, UniProt Q03164). Briefly: MLL1 LC-MS Assay. The assay is classed as biochemical. The method in brief:
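Compound pre-incubated 20 min with MLL1-4C and SAM, then H3[1-21]-biotin (H3K4me0) substrate added; final 30 nM enzyme, 2.5 μM SAM, 10 μM peptide in Tris pH 8.0 with MgCl2, DTT, Tween 20, BSA. After 120 min at rt, TFA-quenched SAH quantified by LC-MS/MS with d4-SAH; IC50 from dose-response fit.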

Like-named read-outs stand apart in the source and are kept apart here. Bounds are passed on as bounds.

The values below come from patent US20220380371A1, “MLL1 INHIBITORS AND ANTI-CANCER AGENTS” (NOVARTIS AG, priority 2019, published 2022).

As to `Nc1ncnc2c1ncn2Cc1c(N2CC[C@](N)(C(=O)N3CCn4nncc4C3)C2)ccc(F)c1C(F)(F)F` [Example 128], the IC50 is more than 100 nM in assay [1], less than 1900 nM in assay [2], more than 3000 nM in assay [3] and more than 100 nM in assay [4] (read-out: LCMS).

With `C[C@H]1CN(C(=O)[C@@]2(N)CCN(c3ccc(F)c(C(F)(F)F)c3Cn3cnc4c(N)ncnc43)C2)CCO1` [Example 131], the IC50 in assay [1] was less than 60 nM; in assay [2], less than 1900 nM; in assay [3], less than 2000 nM; in assay [4] (read-out: LCMS), 50 to 100 nM.

Take `N#CC1CN(C(=O)[C@@]2(N)CCN(c3ccc(F)c(C(F)(F)F)c3Cn3cnc4c(N)ncnc43)C2)C1` [Example 132]: the IC50 is less than 60 nM in assay [1], less than 1900 nM in assay [2], less than 2000 nM in assay [3] and 50 to 100 nM in assay [4] (read-out: LCMS).

In the case of `Nc1nccc(CNC(=O)[C@@]2(N)CCN(c3ccc(F)c(C(F)(F)F)c3Cn3cnc4c(N)ncnc43)C2)n1` [Example 133], the IC50 in assay [1] is 60 to 100 nM; in assay [2], less than 1900 nM; in assay [3], less than 2000 nM; in assay [4] (read-out: LCMS), 50 to 100 nM.

In the case of `Nc1ncnc2c1ncn2Cc1c(N2CC[C@](N)(C(=O)N3CCc4nocc4C3)C2)ccc(F)c1C(F)(F)F` [Example 134], the IC50 is less than 60 nM in assay [1], less than 1900 nM in assay [2], less than 2000 nM in assay [3] and more than 100 nM in assay [4] (read-out: LCMS).

Turning to `C[C@@H]1CN(C(=O)[C@@]2(N)CCN(c3ccc(F)c(C(F)(F)F)c3Cn3cnc4c(N)ncnc43)C2)CCO1` [Example 135], the IC50 in assay [1] was less than 60 nM; in assay [2] it was less than 1900 nM; in assay [3], less than 2000 nM; in assay [4] (read-out: LCMS) it was 50 to 100 nM.

As for `N#CCN1CCN(C(=O)[C@@]2(N)CCN(c3ccc(F)c(C(F)(F)F)c3Cn3cnc4c(N)ncnc43)C2)CC1` [Example 136], the IC50 in assay [1] is less than 60 nM; in assay [2], less than 1900 nM; in assay [3], less than 2000 nM; in assay [4] (read-out: LCMS) it was 50 to 100 nM.

Take `Nc1ncnc2c1ncn2Cc1c(N2CC[C@](N)(C(=O)N3CCC[C@@H](O)C3)C2)ccc(F)c1C(F)(F)F` [Example 138]: the IC50 was less than 60 nM in assay [1], less than 1900 nM in assay [2], less than 2000 nM in assay [3] and 50 to 100 nM in assay [4] (read-out: LCMS).

For the molecule `CCn1ncnc1CNC(=O)[C@@]1(N)CCN(c2ccc(F)c(C(F)(F)F)c2Cn2cnc3c(N)ncnc32)C1` [Example 140], the IC50 in assay [1] is 60 to 100 nM; in assay [2], less than 1900 nM; in assay [3], less than 2000 nM; in assay [4] (read-out: LCMS), more than 100 nM.

Take `N#CC1CCN(C(=O)[C@@]2(N)CCN(c3ccc(F)c(C(F)(F)F)c3Cn3cnc4c(N)ncnc43)C2)C1` (stereo partly drawn) [Example 141]: the IC50 in assay [1] is less than 60 nM; in assay [2] it was less than 1900 nM; in assay [3], less than 2000 nM; in assay [4] (read-out: MLL1 LCMS), less than 50 nM.

Take `Nc1ncnc2c1ncn2Cc1c(Br)ccc(Cl)c1N1CC[C@@](N)(C(=O)O)C1` [Example 142]: the IC50 in assay [1] is less than 60 nM; in assay [2] it was less than 1900 nM; in assay [3], more than 3000 nM; in assay [4] (read-out: MLL1 LCMS), less than 50 nM.

`Nc1ncnc2c1ncn2Cc1c(Br)c(Cl)cc(Cl)c1N1CC[C@](N)(C(=O)NC2CC2)C1` [Example 143]: the IC50 in assay [1] is less than 60 nM; in assay [2], less than 1900 nM; in assay [3], less than 2000 nM; in assay [4] (read-out: MLL1 LCMS), less than 50 nM.

Turning to `Nc1ncnc2c1ncn2Cc1c(N2CC[C@](N)(C(=O)NC3CC3)C2)ccc(Cl)c1Cl` [Example 144], the IC50 in assay [1] was less than 60 nM; in assay [2], less than 1900 nM; in assay [3], less than 2000 nM; in assay [4] (read-out: MLL1 LCMS), less than 50 nM.

As for `CCc1c(Cl)ccc(N2CC[C@](N)(C(=O)NCCS(=O)(=O)c3ccccc3)C2)c1Cn1cnc2c(N)ncnc21` [Example 145], the IC50 was less than 60 nM in assay [1], less than 1900 nM in assay [2], less than 2000 nM in assay [3] and less than 50 nM in assay [4] (read-out: MLL1 LCMS).

Consider `Nc1ncnc2c1ncn2Cc1c(N2CC[C@](N)(C(=O)NC3CC3)C2)ccc(Br)c1C(F)(F)F` [Example 146], for which the IC50 in assay [1] was less than 60 nM; in assay [2], less than 1900 nM; in assay [3], less than 2000 nM; in assay [4] (read-out: MLL1 LCMS), less than 50 nM.
